Data taken from PubChem BioAssay (NCI).
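Where inhibition never reached the appropriate level, the endpoint shown equals the highest concentration tested. Otherwise, values were interpolated linearly from a five-concentration, 48-hour dose response in 96-well plates. TGI: concentration producing complete growth inhibition.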

Tests used:
Test in all cases: NCI tumour cell line growth inhibition, 48 h
HCT-15 colon = tested on: HCT-15 colon
NCI-H460 lung = tested on: NCI-H460 lung
M19-MEL melanoma = tested on: M19-MEL melanoma
T-47D breast = tested on: T-47D breast
OVCAR-8 ovarian = tested on: OVCAR-8 ovarian
SF-295 CNS = tested on: SF-295 CNS
SK-MEL-2 melanoma = tested on: SK-MEL-2 melanoma
OVCAR-4 ovarian = tested on: OVCAR-4 ovarian
HL-60(TB) leukemia = tested on: HL-60(TB) leukemia
K-562 leukemia = tested on: K-562 leukemia
OVCAR-3 ovarian = tested on: OVCAR-3 ovarian
IGROV1 ovarian = tested on: IGROV1 ovarian
RXF-631 renal = tested on: RXF-631 renal
EKVX NSCLC = tested on: EKVX NSCLC
U251 CNS = tested on: U251 CNS
OVCAR-5 ovarian = tested on: OVCAR-5 ovarian
NCI/ADR-RES ovarian = tested on: NCI/ADR-RES ovarian
NCI-H23 lung = tested on: NCI-H23 lung
SF-268 CNS = tested on: SF-268 CNS
RPMI-8226 leukemia = tested on: RPMI-8226 leukemia
SF-539 CNS = tested on: SF-539 CNS
SNB-19 CNS = tested on: SNB-19 CNS
HT29 colon = tested on: HT29 colon
A498 renal = tested on: A498 renal
MDA-N = tested on: MDA-N
SNB-75 CNS = tested on: SNB-75 CNS
KM12 colon = tested on: KM12 colon
SK-MEL-28 melanoma = tested on: SK-MEL-28 melanoma
RXF 393 renal = tested on: RXF 393 renal
DMS 273 small cell lung = tested on: DMS 273 small cell lung
ACHN renal = tested on: ACHN renal
NCI-H522 lung = tested on: NCI-H522 lung
CCRF-CEM leukemia = tested on: CCRF-CEM leukemia
MDA-MB-435 = tested on: MDA-MB-435
M14 melanoma = tested on: M14 melanoma
HCT-116 colon = tested on: HCT-116 colon
MOLT-4 leukemia = tested on: MOLT-4 leukemia
SW-620 colon = tested on: SW-620 colon
MCF7 breast = tested on: MCF7 breast
HCC-2998 colon = tested on: HCC-2998 colon
A549 NSCLC = tested on: A549 NSCLC
LXFL 529 NSCLC = tested on: LXFL 529 NSCLC
MDA-MB-231 breast = tested on: MDA-MB-231 breast
HS 578T breast = tested on: HS 578T breast
SNB-78 CNS = tested on: SNB-78 CNS
KM20L2 colon = tested on: KM20L2 colon
786-0 renal = tested on: 786-0 renal
SR leukemia = tested on: SR leukemia
PC-3 prostate = tested on: PC-3 prostate
BT-549 breast = tested on: BT-549 breast
DMS 114 small cell lung = tested on: DMS 114 small cell lung
SN12C renal = tested on: SN12C renal
MALME-3M melanoma = tested on: MALME-3M melanoma
UACC-62 melanoma = tested on: UACC-62 melanoma
NCI-H226 lung = tested on: NCI-H226 lung
SK-OV-3 ovarian = tested on: SK-OV-3 ovarian
UO-31 renal = tested on: UO-31 renal
UACC-257 melanoma = tested on: UACC-257 melanoma
DLD-1 colon = tested on: DLD-1 colon
DU-145 prostate = tested on: DU-145 prostate
XF 498 CNS = tested on: XF 498 CNS
COLO 205 colon = tested on: COLO 205 colon
TK-10 renal = tested on: TK-10 renal
CAKI-1 renal = tested on: CAKI-1 renal
LOX IMVI melanoma = tested on: LOX IMVI melanoma
HOP-92 NSCLC = tested on: HOP-92 NSCLC
SK-MEL-5 melanoma = tested on: SK-MEL-5 melanoma
HOP-62 NSCLC = tested on: HOP-62 NSCLC

SMILES: CC(=O)NNc1nc(C)c(C(=O)NNC(=O)C(=O)Nc2nc3ccc([N+](=O)[O-])cc3s2)s1
- TGI (HCT-15 colon): > 100 µM
- TGI (NCI-H460 lung): > 100 µM
- TGI (M19-MEL melanoma): > 100 µM
- TGI (T-47D breast): 68.3 µM
- TGI (OVCAR-8 ovarian): > 100 µM
- TGI (SF-295 CNS): > 100 µM
- TGI (SK-MEL-2 melanoma): > 100 µM
- TGI (OVCAR-4 ovarian): > 100 µM
- TGI (HL-60(TB) leukemia): 79.9 µM
- TGI (K-562 leukemia): > 70.6 µM
- TGI (OVCAR-3 ovarian): 76.4 µM
- TGI (IGROV1 ovarian): > 83.7 µM
- TGI (RXF-631 renal): > 100 µM
- TGI (EKVX NSCLC): > 100 µM
- TGI (U251 CNS): > 100 µM
- TGI (OVCAR-5 ovarian): > 100 µM
- TGI (NCI/ADR-RES ovarian): > 100 µM
- TGI (NCI-H23 lung): > 100 µM
- TGI (SF-268 CNS): > 100 µM
- TGI (RPMI-8226 leukemia): > 80.5 µM
- TGI (SF-539 CNS): > 100 µM
- TGI (SNB-19 CNS): > 100 µM
- TGI (HT29 colon): > 100 µM
- TGI (A498 renal): > 70.8 µM
- TGI (MDA-N): > 100 µM
- TGI (SNB-75 CNS): > 100 µM
- TGI (KM12 colon): > 100 µM
- TGI (SK-MEL-28 melanoma): > 100 µM
- TGI (RXF 393 renal): > 95.6 µM
- TGI (DMS 273 small cell lung): > 100 µM
- TGI (ACHN renal): > 100 µM
- TGI (NCI-H522 lung): 61.4 µM
- TGI (CCRF-CEM leukemia): 56.5 µM
- TGI (MDA-MB-435): > 100 µM
- TGI (M14 melanoma): > 100 µM
- TGI (HCT-116 colon): > 100 µM
- TGI (MOLT-4 leukemia): > 100 µM
- TGI (SW-620 colon): > 100 µM
- TGI (MCF7 breast): > 100 µM
- TGI (HCC-2998 colon): > 100 µM
- TGI (A549 NSCLC): > 100 µM
- TGI (LXFL 529 NSCLC): > 100 µM
- TGI (MDA-MB-231 breast): > 100 µM
- TGI (HS 578T breast): > 100 µM
- TGI (SNB-78 CNS): > 100 µM
- TGI (KM20L2 colon): > 100 µM
- TGI (786-0 renal): > 100 µM
- TGI (SR leukemia): > 72.2 µM
- TGI (PC-3 prostate): > 100 µM
- TGI (BT-549 breast): > 100 µM
- TGI (DMS 114 small cell lung): 82.5 µM
- TGI (SN12C renal): > 100 µM
- TGI (MALME-3M melanoma): > 100 µM
- TGI (UACC-62 melanoma): > 100 µM
- TGI (NCI-H226 lung): > 100 µM
- TGI (SK-OV-3 ovarian): > 100 µM
- TGI (UO-31 renal): > 100 µM
- TGI (UACC-257 melanoma): > 100 µM
- TGI (DLD-1 colon): > 100 µM
- TGI (DU-145 prostate): > 100 µM
- TGI (XF 498 CNS): 75.9 µM
- TGI (COLO 205 colon): > 100 µM
- TGI (TK-10 renal): > 100 µM
- TGI (CAKI-1 renal): > 92.6 µM
- TGI (LOX IMVI melanoma): > 100 µM
- TGI (HOP-92 NSCLC): > 100 µM
- TGI (SK-MEL-5 melanoma): > 81.5 µM
- TGI (HOP-62 NSCLC): > 100 µM

SMILES: CSc1c(C)c(C)nn1-c1ccccc1
- TGI (HCT-15 colon): > 100 µM
- TGI (NCI-H460 lung): > 100 µM
- TGI (OVCAR-8 ovarian): > 100 µM
- TGI (SF-295 CNS): > 100 µM
- TGI (SK-MEL-2 melanoma): > 100 µM
- TGI (OVCAR-4 ovarian): > 100 µM
- TGI (HL-60(TB) leukemia): > 100 µM
- TGI (K-562 leukemia): > 100 µM
- TGI (IGROV1 ovarian): > 100 µM
- TGI (RXF-631 renal): > 100 µM
- TGI (EKVX NSCLC): > 100 µM
- TGI (U251 CNS): > 100 µM
- TGI (OVCAR-5 ovarian): > 100 µM
- TGI (NCI-H23 lung): > 100 µM
- TGI (SF-268 CNS): > 100 µM
- TGI (RPMI-8226 leukemia): > 100 µM
- TGI (SF-539 CNS): > 100 µM
- TGI (SNB-19 CNS): > 100 µM
- TGI (HT29 colon): > 100 µM
- TGI (A498 renal): > 100 µM
- TGI (SNB-75 CNS): > 100 µM
- TGI (KM12 colon): > 100 µM
- TGI (SK-MEL-28 melanoma): > 100 µM
- TGI (RXF 393 renal): > 100 µM
- TGI (DMS 273 small cell lung): > 100 µM
- TGI (ACHN renal): > 100 µM
- TGI (NCI-H522 lung): > 100 µM
- TGI (CCRF-CEM leukemia): > 100 µM
- TGI (M14 melanoma): > 100 µM
- TGI (MOLT-4 leukemia): > 100 µM
- TGI (SW-620 colon): > 100 µM
- TGI (HCC-2998 colon): > 100 µM
- TGI (A549 NSCLC): > 100 µM
- TGI (LXFL 529 NSCLC): > 100 µM
- TGI (SNB-78 CNS): > 100 µM
- TGI (KM20L2 colon): > 100 µM
- TGI (786-0 renal): > 100 µM
- TGI (DMS 114 small cell lung): > 100 µM
- TGI (SN12C renal): > 100 µM
- TGI (MALME-3M melanoma): > 100 µM
- TGI (UACC-62 melanoma): > 100 µM
- TGI (SK-OV-3 ovarian): > 100 µM
- TGI (UO-31 renal): > 100 µM
- TGI (UACC-257 melanoma): > 100 µM
- TGI (DLD-1 colon): > 100 µM
- TGI (XF 498 CNS): > 100 µM
- TGI (COLO 205 colon): > 100 µM
- TGI (TK-10 renal): > 100 µM
- TGI (CAKI-1 renal): > 100 µM
- TGI (LOX IMVI melanoma): > 100 µM
- TGI (SK-MEL-5 melanoma): > 100 µM
